Laboratory results published in PMC4551797 (PLoS ONE, 2015).
Like-named read-outs stand apart in the source and are kept apart here.

How the values were obtained:
mouse TGR5 [1] = molecular target: T1, mouse TGR5 (Mus musculus, UniProt Q80SS6); assay: cAMP production in STC-1 enteroendocrine cells (endogenous TGR5); type: cell-based; parameters: in cells with endogenous levels of receptor; host or cells: STC-1 (mouse enteroendocrine); conditions: for EC50: STC-1 cells
T1 sequence (Q80SS6 1-329): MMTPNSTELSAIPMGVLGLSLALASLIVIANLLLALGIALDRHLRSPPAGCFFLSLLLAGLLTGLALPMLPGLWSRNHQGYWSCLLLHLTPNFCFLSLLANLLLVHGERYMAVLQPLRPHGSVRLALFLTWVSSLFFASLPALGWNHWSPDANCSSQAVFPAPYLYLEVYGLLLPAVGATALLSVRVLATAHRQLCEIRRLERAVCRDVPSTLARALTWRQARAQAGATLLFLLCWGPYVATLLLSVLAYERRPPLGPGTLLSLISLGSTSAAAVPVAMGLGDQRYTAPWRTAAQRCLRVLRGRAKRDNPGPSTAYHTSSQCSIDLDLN
Procedure: Both were maintained in Dulbecco’s modified Eagle’s medium (DMEM) containing 10% fetal bovine serum (FBS) and penicillin /streptomycin. Mouse STC-1 cells were obtained from ATCC under agreement with the Cold Spring Harbor Laboratories and maintained in DMEM containing 10% FBS and penicillin /streptomycin. […] NCI-H716 cells were cultured in 96 well plate coated with Matrigel (BD). After 72 hours, cAMP production stimulated with TGR5 agonists was measured using HTRF cAMP assay kit (CISBIO). The level of cAMP in suspensions of STC-1 cells stimulated with increasing concentrations of TGR5 agonists was also determined. After 2 day-culturing, GLP-1 secretion in Matrigel-differentiated NCI-H716 or STC-1 cells was induced by increasing concentrations of TGR5 agonists. The production of GLP-1 was determined using a GLP-1 Assay (7–36) amide kit (Mesoscale Discovery) following the manufacturer’s instructions. For both cAMP and GLP-1, the maximal response for each compound was set to 100% in each cell line.

STC-1 cells = assay: GLP-1 secretion in STC-1 enteroendocrine cells; type: cell-based; conditions: Mus musculus
Procedure: (§1) HEK-293 cells were obtained from ATCC and a clonal HEK-293 line overexpressing mouse TGR5 was prepared. Both were maintained in Dulbecco’s modified Eagle’s medium (DMEM) containing 10% fetal bovine serum (FBS) and penicillin /streptomycin. Mouse STC-1 cells were obtained from ATCC under agreement with the Cold Spring Harbor Laboratories and maintained in DMEM containing 10% FBS and penicillin /streptomycin. NCI-H716 cells were obtained from ATCC and were maintained in RPMI-1640 with 10% FBS. NCI-H716 cells were cultured in 96 well plate coated with Matrigel (BD). After 72 hours, cAMP production stimulated with TGR5 agonists was measured using HTRF cAMP assay kit (CISBIO). The level of cAMP in suspensions of STC-1 cells stimulated with increasing concentrations of TGR5 agonists was also determined. […] The production of GLP-1 was determined using a GLP-1 Assay (7–36) amide kit (Mesoscale Discovery) following the manufacturer’s instructions. […]
(§2) Compound 18 is a novel small molecule agonist of TGR5 developed by Eli Lilly and Company (MW = 508.62, Fig 2A). […] In order to determine potency of compound 18 for the mouse and human TGR5 receptor in cells with endogenous levels of receptor, we measured compound 18-stimulated cAMP production and GLP-1 secretion in both mouse (STC-1) and human (NCI-H716) enteroendocrine cell lines, that we have shown to express TGR5 natively (Fig 1). […]

[2] = Plasma compound levels after oral dosing (LC-MS/MS); conditions: C57BL/6, mouse
human TGR5 receptor = molecular target: T2, human TGR5 receptor (Homo sapiens, UniProt Q8TDU6); assay: cAMP production in NCI-H716 enteroendocrine cells (endogenous TGR5); type: cell-based
T2 construct: in cells with endogenous levels of receptor; host or cells: NCI-H716 (human enteroendocrine)
T2 sequence (Q8TDU6 1-330): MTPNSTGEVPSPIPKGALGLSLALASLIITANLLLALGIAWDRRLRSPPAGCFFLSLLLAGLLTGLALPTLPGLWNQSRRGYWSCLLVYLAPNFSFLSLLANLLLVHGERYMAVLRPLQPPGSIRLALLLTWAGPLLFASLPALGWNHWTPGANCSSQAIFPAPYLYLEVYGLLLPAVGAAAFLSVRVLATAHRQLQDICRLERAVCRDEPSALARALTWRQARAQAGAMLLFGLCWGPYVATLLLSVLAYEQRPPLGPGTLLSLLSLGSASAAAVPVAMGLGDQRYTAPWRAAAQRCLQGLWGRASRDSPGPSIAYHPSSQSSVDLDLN
Procedure: as §1, §2

Tgr5 KO mice = assay: Three-day study on GLP-1, PYY and bile weight in Tgr5 KO mice; conditions: 100 mg/kg oral BID 3 days, 30 min after last dose
Procedure: C57BL/6 mice, Tgr5 KO mice, or their wild-type littermate controls were orally dosed with vehicle or compounds twice per day for 3 days, with overnight fasting performed on the evening of day 2. On the morning of day 3, animals were dosed orally with compounds and then euthanized by CO2 asphyxiation at 30 minutes after the fifth dose. Plasma was collected for analysis of GLP-1 (X-36) amide as mentioned above, followed immediately by incision into the abdominal cavity to remove and weigh bile from the gallbladder.

mouse TGR5 [3] = molecular target: T1, mouse TGR5; assay: cAMP production in HEK-293 cells stably transfected with the mouse TGR5 gene (HTRF cAMP assay); type: cell-based; parameters: expressed in transfected cells
Procedure: as §1, §2

CC(=O)N1CCC(C(C)N(C(=O)COc2cccc3sc4nc(C)cn4c23)c2ccc(F)cc2)CC1 (centres unmarked) [compound 18]
EC50 (mouse TGR5 [1]; read-out: EC50, cAMP production): 580 nM
EC50 (mouse TGR5 [1]; unit inferred, x-axis in nM, read-out: EC50 STC-1 (Fig 2C inset, cAMP)): 580 nM
potency on the mouse versus the human TGR5 receptor (mouse TGR5 [1]; STC-1 versus NCI-H716 cells): more than 5 fold
EC50 (STC-1 cells; read-out: EC50, GLP-1 secretion): 307 nM
EC50 (STC-1 cells; unit inferred, x-axis in nM, read-out: EC50 STC-1 (Fig 2D inset, GLP-1 secretion)): 307 nM
AUC(0-t) ([2]; 3 mg/kg): 0.049 µM·h
Cmax ([2]; 3 mg/kg): 59 nM
AUC(0-t) ([2]; 10 mg/kg): 0.507 µM·h
Cmax ([2]; 10 mg/kg): 348 nM
AUC(0-t) ([2]; 30 mg/kg): 1.52 µM·h
Cmax ([2]; 30 mg/kg): 2510 nM
AUC(0-t) ([2]; 100 mg/kg): 14.3 µM·h
Cmax ([2]; 100 mg/kg): 14800 nM
Tmax ([2]; 100 mg/kg): 15 min
EC50 (human TGR5 receptor): 3.1 µM
GLP-1 (Tgr5 KO mice): no detectable increase
PYY (Tgr5 KO mice): no detectable increase
bile weight (Tgr5 KO mice): no detectable increase
EC50 (mouse TGR5 [3]; HEK-293 cells over-expressing mouse TGR5, read-out: EC50, cAMP production): 24.7 nM
EC50 (mouse TGR5 [3]; cAMP, unit inferred, x-axis in nM, read-out: EC50 HEK-293-mTGR5 (Fig 2B inset)): 24.7 nM
